Results from PMC9505425, “Targeting of the Mitochondrial TET1 Protein by Pyrrolo[3,2-b]pyrrole Chelators” (International Journal of Molecular Sciences, 2022).
“And” between values parts separate entries of the source, which are not always exact repeats. Identical values can stand only once.

Tests used:
BT-20 cells = assay: MTT cytotoxicity assay, BT-20; assay type: cell-based, human; conditions: for Cell viability % / IC50: 48 h; for IC50: BT-20, MTT
Experimental: (§1) The effects of the tested compounds 1–6 on HF-P4, U-118 MG, H1299, BT-20, and Caov-3 cell lines were evaluated by the MTT assay during 48 h treatment (Table 2 and Tables S2–S31). In all tested compounds, we recognized a difference in cytotoxicity between healthy cells (HF-P4) and cancer cell lines (BT-20, Caov-3, and H-1299). […] In the case of ovarian cancer, the authors discovered oncogenic and poor prognosis roles of TET1 in epithelial ovarian carcinoma (EOC). TET1 is believed to demethylate the epigenome and activate numerous oncogenic pathways in EOC. The aforementioned study presents a new mechanism where TET1 contributes to tumor development through collaboration with CK2α [21]. The overexpression of the TET1 protein was also found in triple negative breast cancer and was associated with an activation of PI3K/mTOR pathway and decreased overall survival.
The human mammary gland/breast cell line (BT-20), purchased from ATCC (BT-20 (ATCC® HTB-19™), Manassas, VA, USA), was used for the cytotoxicity assay (MTT), and BT-20 cells were cultivated under standard conditions in Eagle’s minimum essential medium (ATCC, Manassas, VA, USA) supplemented with 10% FBS and streptomycin (100 μg/mL) at 37 °C at a 5% CO2 atmosphere.
(§2) For the cytotoxicity assay, we used the following cell lines: human glioblastoma cell line U118-MG, human mammary gland/breast cell line BT-20, human ovary adenocarcinoma cell line Caov-3, and non-small-cell lung carcinoma H-1299. As previously mentioned, these cell lines contain a high level of the TET1 protein, which corresponds to a lower overall survival. In addition to these cell cultures, we used the human dermal fibroblast cell line HF-P4 as a healthy control. Determination of cytotoxicity was performed using the MTT [3-(4,5-dimethylthiazol-2-yl)-2,5-diphenyltetrazolium bromide] colorimetric assay. Viable cells from each cell line were cultured in 96-well plates (VWR, Stříbrná Skalice, Czech Republic) at a density of 1.0 × 10^5 cells per well and allowed to grow for 24 h in 200 μL of recommended medium. After a 1-day incubation, the medium was replaced with solutions of compounds 1–6 at concentration ranges of 0.1–20 μM. Each concentration was measured four times within one test, and the entire test was repeated three times. Tested compounds 1–6 were dissolved in DMSO and then diluted with corresponding medium to a final volume of 200 μL (maximum 1% DMSO). After 48 h exposure, cells were treated with 175 μL of MTT solution (P-LAB, Prague, Czech Republic) for 2 h. In the next step, MTT solution was removed, and 125 μL of DMSO (Penta, Prague, Czech Republic) was added to solubilize dark crystals of formazan formed in intact cells, and absorbance was measured at 570 nm by the enzyme-linked immunoabsorbent assay reader Infinite® 200 PRO (Tecan, Männedorf, Switzerland). The final DMSO concentration was smaller than 1% (v/v). The absorbance of untreated cells was considered 100%, and IC50 values were calculated by the GraphPad Prism 8 software. As a parameter for cytotoxicity, we used a concentration that inhibits 50% of cell growth (IC50).

U-118 MG cells = assay: MTT cytotoxicity assay, U-118 MG; assay type: cell-based, human; conditions: 48 h; for viability at 0.1 µM / viability at 0.5 µM / viability at 0.75 µM / viability at 1 µM / viability at 2.5 µM / viability at 5 µM / viability at 7.5 µM / viability at 10 µM / viability at 15 µM / viability at 20 µM / IC50: Homo sapiens, U-118-MG; for viability at 0.1 µM / viability at 0.5 µM / viability at 0.75 µM / viability at 1 µM / viability at 2.5 µM / viability at 5 µM / viability at 7.5 µM / viability at 10 µM / viability at 15 µM / viability at 20 µM / Cell viability %: U-118 MG, repeats; for viability at 0.1 µM / viability at 0.5 µM / viability at 0.75 µM / viability at 1 µM / viability at 2.5 µM / viability at 5 µM / viability at 7.5 µM / viability at 10 µM / viability at 15 µM / viability at 20 µM: read-out: Cell viability %; for IC50: MTT
Experimental: as §1
A human glioblastoma cell line (U118-MG) and a human non-small-cell lung carcinoma cell line (H1299) were used for the cytotoxicity assay (MTT). Both cell lines were generously supplied by Dr. M. Masařik, PhD, Department of Pathological physiology, Masaryk University, Czech Republic. U118-MG cells were cultivated under standard conditions in Dulbecco’s modified Eagle’s medium (ATCC, Manassas, VA, USA) supplemented with 10% FBS and streptomycin (100 μg/mL) at 37 °C at a 5% CO2 atmosphere. H1299 cells were cultivated under standard conditions in RPMI 1640 (BioTech, Prague, Czech Republic) medium supplemented with 10% FBS and streptomycin (100 μg/mL) at 37 °C at a 5% CO2 atmosphere.
as §2

[1] = BT-20, 750 nM, repeats, 0.75 µM
[2] = Homo sapiens, BT-20, 48 h, BT-20, 500 nM, repeats, read-out: Cell viability %
[3] = Homo sapiens, BT-20, 48 h, BT-20, 750 nM, repeats, read-out: Cell viability %
[4] = Homo sapiens, BT-20, 48 h, BT-20, 2.5 uM, repeats, read-out: Cell viability %
[5] = Homo sapiens, BT-20, 48 h, BT-20, 5 uM, repeats, read-out: Cell viability %
[6] = Homo sapiens, BT-20, 48 h, BT-20, 7.5 uM, repeats, read-out: Cell viability %
[7] = Homo sapiens, BT-20, 48 h, BT-20, 10 uM, repeats, read-out: Cell viability %
[8] = Homo sapiens, BT-20, 48 h, BT-20, 15 uM, repeats, read-out: Cell viability %
[9] = Homo sapiens, BT-20, 48 h, BT-20, 20 uM, repeats, read-out: Cell viability %

Cc1ccc(-n2c(-c3ccc(C(=O)NN)cc3)cc3c2cc(-c2ccc(C(=O)NN)cc2)n3-c2ccc(C)cc2)cc1 [Compound 1]
Cell viability % (BT-20 cells; BT-20, 100 nM, repeats, 0.1 µM): 100.0252% and 99.53%
Cell viability % (BT-20 cells; BT-20, 500 nM, repeats, 0.5 µM): 106.1555% and 91.85%
Cell viability % (BT-20 cells; [1]): 98.6% and 95.52%
Cell viability % (BT-20 cells; BT-20, 1 uM, repeats, 1 µM): 98.92% and 100.049%
Cell viability % (BT-20 cells; BT-20, 2.5 uM, repeats, 2.5 µM): 55.65% and 54.6523%
Cell viability % (BT-20 cells; BT-20, 5 uM, repeats, 5 µM): 56.31% and 56.39%
Cell viability % (BT-20 cells; BT-20, 7.5 uM, repeats, 7.5 µM): 50.1262% and 42.238%
Cell viability % (BT-20 cells; BT-20, 10 uM, repeats, 10 µM): 44.0939% and 37.78%
Cell viability % (BT-20 cells; BT-20, 15 uM, repeats, 15 µM): 32.99% and 30.02%
Cell viability % (BT-20 cells; BT-20, 20 uM, repeats, 20 µM): 18.85% and 15.23%
viability at 0.1 µM (BT-20 cells; Homo sapiens, BT-20, 48 h, BT-20, 100 nM, repeats, read-out: Cell viability %): 102%
viability at 0.5 µM (BT-20 cells; [2]): 87.8%
viability at 0.75 µM (BT-20 cells; [3]): 91.2%
viability at 1 µM (BT-20 cells; Homo sapiens, BT-20, 48 h, BT-20, 1 uM, repeats, read-out: Cell viability %): 103%
viability at 2.5 µM (BT-20 cells; [4]): 69.2%
viability at 5 µM (BT-20 cells; [5]): 56.8%
viability at 7.5 µM (BT-20 cells; [6]): 41.2%
viability at 10 µM (BT-20 cells; [7]): 41.5%
viability at 15 µM (BT-20 cells; [8]): 33.5%
viability at 20 µM (BT-20 cells; [9]): 19.8%
IC50 (BT-20 cells; Homo sapiens): 5.94 µM
viability at 0.1 µM (U-118 MG cells; 100 nM): 74.9%
viability at 0.5 µM (U-118 MG cells; 500 nM): 81.2%
viability at 0.75 µM (U-118 MG cells; 750 nM): 75.3%
viability at 1 µM (U-118 MG cells; 1 uM): 61.6%
viability at 2.5 µM (U-118 MG cells; 2.5 uM): 59.8%
viability at 5 µM (U-118 MG cells; 5 uM): 64.5%
viability at 7.5 µM (U-118 MG cells; 7.5 uM): 65.9%
viability at 10 µM (U-118 MG cells; 10 uM): 49.8%
viability at 15 µM (U-118 MG cells; 15 uM): 52.9%
viability at 20 µM (U-118 MG cells; 20 uM): 32.4%
IC50 (U-118 MG cells): > 20 µM
Cell viability % (U-118 MG cells; 100 nM, 0.1 µM): 89.42% and 92.96%
Cell viability % (U-118 MG cells; 500 nM, 0.5 µM): 77.57% and 78.28%
Cell viability % (U-118 MG cells; 750 nM, 0.75 µM): 75.76% and 76.03%
Cell viability % (U-118 MG cells; 1 uM): 65.25% and 66.5%
Cell viability % (U-118 MG cells; 2.5 uM): 71.64% and 61.0448%
Cell viability % (U-118 MG cells; 5 uM): 72.2848% and 61.2%
Cell viability % (U-118 MG cells; 7.5 uM): 73.35% and 73.21%
Cell viability % (U-118 MG cells; 10 uM): 65.4465% and 62.16%
Cell viability % (U-118 MG cells; 15 uM): 49.75% and 52.18%
Cell viability % (U-118 MG cells; 20 uM): 38.37% and 42.77%

CCN(CC)c1ccc(/C=N/NC(=O)c2ccc(-c3cc4c(cc(-c5ccc(C(=O)N/N=C/c6ccc(N(CC)CC)cc6O)cc5)n4-c4ccc(C)cc4)n3-c3ccc(C)cc3)cc2)c(O)c1 [Compound 2]
Cell viability % (BT-20 cells; BT-20, 100 nM, repeats, 0.1 µM): 89.53% and 96.38% and 111.3369%
Cell viability % (BT-20 cells; BT-20, 500 nM, repeats, 0.5 µM): 89.9% and 93.14%
Cell viability % (BT-20 cells; [1]): 105.3004% and 102.8159%
Cell viability % (BT-20 cells; BT-20, 1 uM, repeats, 1 µM): 123.7041% and 111.0298% and 97.09%
Cell viability % (BT-20 cells; BT-20, 2.5 uM, repeats, 2.5 µM): 100.513% and 96.3761%
Cell viability % (BT-20 cells; BT-20, 5 uM, repeats, 5 µM): 79.33% and 68.98%
Cell viability % (BT-20 cells; BT-20, 7.5 uM, repeats, 7.5 µM): 62.62% and 57%
Cell viability % (BT-20 cells; BT-20, 10 uM, repeats, 10 µM): 57.5% and 51.13%
Cell viability % (BT-20 cells; BT-20, 15 uM, repeats, 15 µM): 49.9% and 44.54%
Cell viability % (BT-20 cells; BT-20, 20 uM, repeats, 20 µM): 24.61% and 32.37%
viability at 0.5 µM (BT-20 cells; [2]): 89.8%
viability at 0.75 µM (BT-20 cells; [3]): 88.9%
viability at 2.5 µM (BT-20 cells; [4]): 98.6%
viability at 5 µM (BT-20 cells; [5]): 73.8%
viability at 7.5 µM (BT-20 cells; [6]): 60.2%
viability at 10 µM (BT-20 cells; [7]): 45%
viability at 15 µM (BT-20 cells; [8]): 46.7%
viability at 20 µM (BT-20 cells; [9]): 28.3%
IC50 (BT-20 cells; Homo sapiens): 11.9 µM
viability at 0.1 µM (U-118 MG cells; 100 nM): 82.5%
viability at 0.5 µM (U-118 MG cells; 500 nM): 64%
viability at 0.75 µM (U-118 MG cells; 750 nM): 70%
viability at 1 µM (U-118 MG cells; 1 uM): 84.1%
viability at 2.5 µM (U-118 MG cells; 2.5 uM): 70.7%
viability at 5 µM (U-118 MG cells; 5 uM): 62.1%
viability at 7.5 µM (U-118 MG cells; 7.5 uM): 66.3%
viability at 10 µM (U-118 MG cells; 10 uM): 57.9%
viability at 15 µM (U-118 MG cells; 15 uM): 51.1%
viability at 20 µM (U-118 MG cells; 20 uM): 39.1%
IC50 (U-118 MG cells): > 20 µM
Cell viability % (U-118 MG cells; 100 nM, 0.1 µM): 87.05%
Cell viability % (U-118 MG cells; 500 nM, 0.5 µM): 68.29% and 66.76%
Cell viability % (U-118 MG cells; 750 nM, 0.75 µM): 77.02% and 67.38%
Cell viability % (U-118 MG cells; 1 uM): 82.08% and 80.29%
Cell viability % (U-118 MG cells; 2.5 uM): 64.2773% and 70.34%
Cell viability % (U-118 MG cells; 5 uM): 65.5% and 62.23%
Cell viability % (U-118 MG cells; 7.5 uM): 62.32% and 65.79%
Cell viability % (U-118 MG cells; 10 uM): 65.41% and 61.07%
Cell viability % (U-118 MG cells; 15 uM): 55.67% and 56.45%
Cell viability % (U-118 MG cells; 20 uM): 44.6621% and 48.66%
